Results published in patent US20130252890A1, “6,7-DIHYDRO-5H-BENZO[7]ANNULENE DERIVATIVES, PROCESS FOR PREPARATION THEREOF, PHARMACEUTICAL PREPARATIONS COMPRISING THEM, AND THE USE THEREOF FOR PRODUCTION OF MEDICAMENTS” (BAYER INTELLECTUAL PROPERTY GMBH, priority 2010, published 2013).

Molecular target: T1, oestrogen receptor (ER) (Homo sapiens, UniProt P03372)
T1 construct: These MVLN cells express, along with the functional oestrogen receptor (ER), a reporter construct; endogenous in cells; host or cells: MVLN cells (MCF7 derivative carrying a luciferase reporter construct)
T1 sequence (P03372 1-595): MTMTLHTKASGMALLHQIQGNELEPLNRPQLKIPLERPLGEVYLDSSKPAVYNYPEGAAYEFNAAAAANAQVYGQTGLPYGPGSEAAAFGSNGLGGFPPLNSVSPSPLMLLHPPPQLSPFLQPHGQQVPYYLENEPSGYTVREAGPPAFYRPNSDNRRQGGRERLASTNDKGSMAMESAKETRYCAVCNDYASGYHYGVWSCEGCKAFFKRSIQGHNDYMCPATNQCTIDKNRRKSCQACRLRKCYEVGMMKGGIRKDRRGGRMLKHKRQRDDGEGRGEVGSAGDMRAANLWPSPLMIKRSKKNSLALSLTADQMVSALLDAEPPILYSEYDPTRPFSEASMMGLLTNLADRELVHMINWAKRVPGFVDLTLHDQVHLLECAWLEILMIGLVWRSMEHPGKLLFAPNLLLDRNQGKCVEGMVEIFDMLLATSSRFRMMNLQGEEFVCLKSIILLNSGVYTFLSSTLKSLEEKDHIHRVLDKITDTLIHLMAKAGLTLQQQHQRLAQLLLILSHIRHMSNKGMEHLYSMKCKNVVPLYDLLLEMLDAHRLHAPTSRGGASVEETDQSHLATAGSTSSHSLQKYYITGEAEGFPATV
Assay: Anti-oestrogenic action in MVLN cells (inhibition of estradiol-induced luciferase)
Assay type: cell-based
Settings: inhibition of estradiol-induced luciferase signal, value of Ex. 44 is a mean value, read-out: Antioestrogenic action in vitro: MVLN transactivation antagonism IC50
Description: The anti-oestrogenic action of the claimed pharmacological compounds was investigated in so-called MVLN cells in vitro. MVLN cells are derivatives of the hormone-responsive MCF7 breast cancer cells known by a person skilled in the art. These MVLN cells express, along with the functional oestrogen receptor (ER), a reporter construct, which under ER-activation expresses luciferase. Determination of the activity of the induced luciferase permits a direct conclusion on the oestrogen properties of substances. To investigate the anti-oestrogenic properties of the pharmacological compounds, they were investigated in the presence of oestrogen for their potential for inhibiting the luciferase signal induced by estradiol. The claimed pharmacological test substances were investigated in MVLN cells for their anti-oestrogenic potential, as described (see Table 2).

SMILES	IC50 [nM]
CN(CCCCCCC1=C(c2cc(F)cc(F)c2)CCCc2cc(O)ccc21)CCC[S+]([O-])CCC(F)(F)F (stereo not drawn) [Example 5, 8-(3,5-Difluorophenyl)-9-[6-(methyl{3-[(3,3,3-trifluoropropyl)sulphinyl]propyl}amino)hexyl]-6,7-dihydro-5H-benzo[7]annulen-3-ol]	46
CN(CCCCCCC1=C(c2ccc(F)cc2)CCCc2c1ccc(O)c2F)CCCCS(=O)(=O)CCCC(F)(F)C(F)(F)F [Example 43, 4-Fluoro-8-(4-fluorophenyl)-9-[6-(methyl{4-[(4,4,5,5,5-pentafluoropentyl)sulphonyl]butyl}amino)hexyl]-6,7-dihydro-5H-benzo[7]annulen-3-ol]	20
CN(CCCCCCC1=C(c2ccc(F)c(F)c2)CCCc2cc(O)ccc21)CCCS(=O)(=O)CCC(F)(F)F [Example 22, 8-(3,4-Difluorophenyl)-9-[6-(methyl{3-[(3,3,3-trifluoropropyl)sulphonyl]propyl}amino)hexyl]-6,7-dihydro-5H-benzo[7]annulen-3-ol]	222
CN(CCCCCCC1=C(c2ccc(F)cc2)CCCc2cc(O)ccc21)CCCS(=O)(=O)CCCCC(F)(F)C(F)(F)F [Example 79, 8-(4-Fluorophenyl)-9-[6-(methyl{3-[(5,5,6,6,6-pentafluorohexyl)sulphonyl]propyl}amino)hexyl]-6,7-dihydro-5H-benzo[7]annulen-3-ol]	17
CN(CCCCCCC1=C(c2ccc(F)cc2)CCCc2cc(O)ccc21)CCCS(=O)(=O)CCC(F)(F)F [Example 53, 8-(4-Fluorophenyl)-9-[6-(methyl{3-[(3,3,3-trifluoropropyl)sulphonyl]propyl}amino)hexyl]-6,7-dihydro-5H-benzo[7]annulen-3-ol]	85
CN(CCCCCCC1=C(c2cc(F)cc(F)c2)CCCc2cc(O)ccc21)CCCS(=O)(=O)CCCCC(F)(F)F [Example 70, 8-(3,5-Difluorophenyl)-9-[6-(methyl{3-[(5,5,5-trifluoropentyl)sulphonyl]propyl}amino)hexyl]-6,7-dihydro-5H-benzo[7]annulen-3-ol]	18
COCCN(CCCCCCC1=C(c2cc(F)cc(F)c2)CCCc2cc(O)ccc21)CCCS(=O)(=O)CCCC(F)(F)C(F)(F)F [Example 15, 8-(3,5-Difluorophenyl)-9-{6-[(2-methoxyethyl){3-[(4,4,5,5,5-pentafluoropentyl)sulphonyl]propyl}amino]hexyl}-6,7-dihydro-5H-benzo[7]annulen-3-ol]	26
CN(CCCCCCC1=C(c2ccc(F)c(F)c2)CCCc2cc(O)ccc21)CCCCS(=O)(=O)CCCC(F)(F)C(F)(F)F [Example 25, 8-(3,4-Difluorophenyl)-9-[6-(methyl{4-[(4,4,5,5,5-pentafluoropentyl)sulphonyl]butyl}amino)hexyl]-6,7-dihydro-5H-benzo[7]annulen-3-ol]	28
CN(CCCCCCC1=C(c2ccc(F)c(F)c2)CCCc2cc(O)ccc21)CCCCCS(=O)(=O)CCC(F)(F)F [Example 71, 8-(3,4-Difluorophenyl)-9-[6-(methyl{5-[(3,3,3-trifluoropropyl)sulphonyl]pentyl}amino)hexyl]-6,7-dihydro-5H-benzo[7]annulen-3-ol]	56
CN(CCCCCCC1=C(c2ccc(F)cc2)CCCc2c1ccc(O)c2F)CCCS(=O)(=O)CCC(F)(F)C(F)(F)F [Example 34, 4-Fluoro-8-(4-fluorophenyl)-9-[6-(methyl{3-[(3,3,4,4,4-pentafluorobutyl)sulphonyl]propyl}amino)hexyl]-6,7-dihydro-5H-benzo[7]annulen-3-ol]	27
CN(CCCCCC1=C(c2ccc(F)cc2)CCCc2cc(O)ccc21)CCCCS(=O)(=O)CCC(F)(F)F [Example 52, 8-(4-Fluorophenyl)-9-[5-(methyl{4-[(3,3,3-trifluoropropyl)sulphonyl]butyl}amino)pentyl]-6,7-dihydro-5H-benzo[7]annulen-3-ol]	521
O=S(=O)(CCCCN(CCO)CCCCCCC1=C(c2ccc(F)cc2)CCCc2cc(O)ccc21)CCC(F)(C(F)(F)F)C(F)(F)F [Example 109, 8-(4-Fluorophenyl)-9-{6-[(2-hydroxyethyl)(4-{[3,4,4,4-tetrafluoro-3-(trifluoromethyl)butyl]sulphonyl}butyl)amino]hexyl}-6,7-dihydro-5H-benzo[7]annulen-3-ol]	26
O=S(=O)(CCCN(CCO)CCCCCCC1=C(c2ccc(F)cc2)CCCc2c1ccc(O)c2F)CCCC(F)(F)C(F)(F)F [Example 59, 4-Fluoro-8-(4-fluorophenyl)-9-{6-[(2-hydroxyethyl){3-[(4,4,5,5,5-pentafluoropentyl)sulphonyl]propyl}amino]hexyl}-6,7-dihydro-5H-benzo[7]annulen-3-ol]	16
CN(CCCCCCC1=C(c2cc(F)cc(F)c2)CCCc2cc(O)ccc21)CCCCCS(=O)(=O)CCC(F)(F)F [Example 68, 8-(3,5-Difluorophenyl)-9-[6-(methyl{5-[(3,3,3-trifluoropropyl)sulphonyl]pentyl}amino)hexyl]-6,7-dihydro-5H-benzo[7]annulen-3-ol]	106
CN(CCCCCCC1=C(c2ccc(F)cc2)CCCc2c1ccc(O)c2F)CCCS(=O)(=O)CCCC(F)(F)F [Example 38, 4-Fluoro-8-(4-fluorophenyl)-9-[6-(methyl{3-[(4,4,4-trifluorobutyl)sulphonyl]propyl}amino)hexyl]-6,7-dihydro-5H-benzo[7]annulen-3-ol]	27
CS(=O)(=O)N(CCCCCCC1=C(c2ccc(F)cc2)CCCc2cc(O)ccc21)CCCCS(=O)(=O)CCCC(F)(F)F [Example 91, N-{6-[8-(4-Fluorophenyl)-3-hydroxy-6,7-dihydro-5H-benzo[7]annulen-9-yl]hexyl}-N-{4-[(4,4,4-trifluorobutyl)sulphonyl]butyl}methanesulphonamide]	67

Now those with a lower IC50, led by results:

IC50 [nM]	SMILES
10	CN(CCCCCCC1=C(c2ccc(F)cc2)CCCc2cc(O)c(F)cc21)CCCCS(=O)(=O)C1CCC(F)(F)CC1 [Example 144, 9-{6-[{4-[(4,4-Difluorocyclohexyl)sulphonyl]butyl}(methyl)amino]hexyl}-2-fluoro-8-(4-fluorophenyl)-6,7-dihydro-5H-benzo[7]annulen-3-ol]
9	O=S(=O)(CCCN(CCO)CCCCCCC1=C(c2ccc(F)cc2)CCCc2cc(O)c(F)cc21)CCCC(F)(F)C(F)(F)F [Example 100, 2-Fluoro-8-(4-fluorophenyl)-9-{6-[(2-hydroxyethyl){3-[(4,4,5,5,5-pentafluoropentyl)sulphonyl]propyl}amino]hexyl}-6,7-dihydro-5H-benzo[7]annulen-3-ol]
9	CC(C)(O)CN(CCCCCCC1=C(c2ccc(F)c(F)c2)CCCc2cc(O)ccc21)CCC[S+]([O-])CCCC(F)(F)C(F)(F)F (stereo not drawn) [Example 28, 8-(3,4-Difluorophenyl)-9-{6-[(2-hydroxy-2-methylpropyl){3-[(4,4,5,5,5-pentafluoropentyl)sulphinyl]propyl}amino]hexyl}-6,7-dihydro-5H-benzo[7]annulen-3-ol]
10	CN(CCCCCCC1=C(c2ccc(F)cc2)CCCc2cc(O)c(F)cc21)CCCCS(=O)(=O)CCC(F)(F)F [Example 106, 2-Fluoro-8-(4-fluorophenyl)-9-[6-(methyl{4-[(3,3,3-trifluoropropyl)sulphonyl]butyl}amino)hexyl]-6,7-dihydro-5H-benzo[7]annulen-3-ol]
5	CN(CCCCCCC1=C(c2ccc(F)cc2F)CCCc2cc(O)ccc21)CCCS(=O)(=O)CCCCCC(F)(F)F [Example 135, 8-(2,4-Difluorophenyl)-9-[6-(methyl{3-[(6,6,6-trifluorohexyl)sulphonyl]propyl}amino)hexyl]-6,7-dihydro-5H-benzo[7]annulen-3-ol]
10	CN(CCCCCCC1=C(c2ccc(F)cc2)CCCc2c1ccc(O)c2F)CCCS(=O)(=O)CCCCC(F)(F)F [Example 87, 4-Fluoro-8-(4-fluorophenyl)-9-[6-(methyl{3-[(5,5,5-trifluoropentyl)sulphonyl]propyl}amino)hexyl]-6,7-dihydro-5H-benzo[7]annulen-3-ol]
6	[2H]C([2H])([2H])N(CCCCCCC1=C(c2cc(F)ccc2F)CCCc2cc(O)ccc21)CCCS(=O)(=O)CCCCC(F)(F)F [Example 137, 8-(2,5-Difluorophenyl)-9-{6-[(^2H3)methyl{3-[(5,5,5-trifluoropentyl)sulphonyl]propyl}amino]hexyl}-6,7-dihydro-5H-benzo[7]annulen-3-ol]
9	[2H]C([2H])([2H])N(CCCCCCC1=C(c2ccc(F)cc2F)CCCc2cc(O)ccc21)CCCS(=O)(=O)CCCCC(F)(F)F [Example 136, 8-(2,4-Difluorophenyl)-9-{6-[(^2H3)methyl{3-[(5,5,5-trifluoropentyl)sulphonyl]propyl}amino]hexyl}-6,7-dihydro-5H-benzo[7]annulen-3-ol]
